Reference: patent publication US8809368B2, “Compounds affecting gap junction activity” (Kansas State University Research Foundation, priority 2006, dated 2014)

System: T47D cells
Test: Scrape load/dye transfer (SL/DT) GJIC assay, T47D cells
Format: cell-based, human
Procedure: In the experiments for FIG. 9, T47D cells were dosed with 100, 200 and 400 nM of PQ1 for 40 minutes. Lucifer yellow, a gap junctional permeable dye, was used to measure the GJIC. Rhodamine dextran was used as a control. The dotted line in FIG. 9 indicates the line of cut. This increase could be due to the interaction between the PQ1 and the connexin proteins which leads to the opening of the gap junction channel. PQ1 exerted no effect on the cell morphology of T47D cells (data not shown).
Scrape load dye transfer technique (SL/DT): Lucifer yellow is an intensely fluorescent […] dye having low molecular weight (Mr 457.2) and passes from one cell to another through gap junctions only. Rhodamine dextran is a high molecular weight polymer (Mr 10,000) used as a control as passes only through injured plasma membrane. Cells were grown to 90% confluency on cover slips, dosed with PQ 1 for 40 minutes. The 2.5 μl of 1% (w/v) Lucifer yellow and 0.75% (w/v) of Rhodamine dextran was mixed and added in the center of the coverslip. Two cuts crossing each other in the center of the coverslip were made. After three minutes, cells were washed with PBS and incubated at 37° C. in tissue culture media for 20 minutes. Cells were fixed and mounted on a slide, sealed and visualized under a fluorescence microscope at 10× objective.
Intercellular communication in many organs is maintained via GJIC. Several GJIC enhancers have been reported; however, an effective clinical drug targeting gap junction is not available at this time. The effect of PQ1 on the GJIC activity in T47D breast cancer cells was tested. […] Conversely, PQ1 has no effect on GJIC activity of human primary epithelial cells (MEC, normal cells) compared to its controls (data not shown). The distance of dye transfer from section cut to the farthest cells with dye was measured. […] MECs have uniform uptake of Lucifer yellow. This is due to the existing high level of gap junction activity of these normal cells.
Gap Junction Activity. […] Cells were mounted on a slide, sealed and visualized under a fluorescence microscope at 10× objective.

SMILES: COc1cc(NCCCN)c2nccc(C)c2c1Oc1cccc(C(F)(F)F)c1.O=C(O)CCC(=O)O [PQ1, 6-Methoxy-8-[(3-aminopropyl)amino]-4-methyl-5-(3-trifluoromethylphenyloxy) quinoline succinic acid]
- increase in distance of dye transfer (200 nM, compared to control): 8.5 fold
- gap junction activity (SL/DT) compared to controls (100, 200 and 500 nM): significant increase
- gap junctional activity (SL/DT) (200 and 500 nM for 40 minutes): significant increase
